Experimental data from patent US9856534B2, “Selecting use of proteasome inhibitors based on NF-κB2 sequence” (Emory University, priority 2011, dated 2018).

Assays:
Type in all cases: cell-based
[1] = test system: OPM and KMS11 multiple myeloma cell lines; assay: Live cell count (Yo-pro-1 iodide/PI negative) in MM cell lines stably expressing NF-κB2 constructs, treated with bortezomib; conditions: titrating doses, 24 hours; live cells
Protocol: A) Two multiple myeloma cell lines, OPM and KMS11, stably expressing the full length NF-κB2 (p100), NF-κB2-ankyrin domains, NF-κB2-death domain were generated using a pLenti6.2/V5-DEST lentivirus. Cells were then treated at titrating doses of bortezomib. After 24 hours the cells were harvested and stained with Yo-pro-1 iodide and propidium Iodide (PI, both from Invitrogen, Grand Island, N.Y.). Live cells were measured using a ImageXpress 5000A Automated Acquisition and Analysis System (Molecular Devices, Sunnyvale, Calif.), quantitating for Yo-pro-1 iodide and PI negative cells. B) OPM1 and RPMI cells stably expressing NF-κB2 (p100), NF-κB2-ankyrin domains or control vector (LacZ) were treated with 10 nM of bortezomib for 24 hours. Cells were harvested and Western blot was performed to assay for caspase 9, cleaved caspase 9 and 3 and actin.
For apoptosis studies, 10^4 cells were treated with titrating doses of doxorubicin (doses: […], Sigma) or rituximab (titrating doses: 1.5, 2.5, 5, 10 and 20 μg/mL, Biogen Idec Inc). Twenty four hours later cells were stained with Yo-pro-1 and Propidium Iodide (Invitrogen). Live cells were measured using a ImageXpress 5000A Automated Acquisition and Analysis System (Molecular Devices, Sunnyvale, Calif.), quantitating for Yo-pro-1 or PI negative cells.
Sequences of NF-κB2-shRNA are known. […]

[2] = test system: RPMI; assay: Bortezomib sensitivity of MM cell line RPMI
[3] = test system: KMS11; assay: Bortezomib sensitivity of MM cell line KMS11
[4] = test system: NF-κB; assay: NF-κB-luciferase reporter assay; conditions: Daudi and SC lymphoma cell lines; titrating doses, 24 hours
Protocol: Daudi and SC cell lines were transfected with a NF-κB-luciferase reporter construct (1 μg of DNA). Twenty four hours post-transfection, cells were treated with titrating doses of bortezomib. After 24 hours of treatment, cells were harvested and lysed with RIPA buffer. Twenty microliters of the lysate were mixed with Luciferase assay substrate (Promega, Madison, Wis.) followed by Stop & Glo reagent. Luciferase activity was then measured in a luminometer.

[5] = test system: Daudi and Raji lymphoma cell lines; assay: Apoptosis by flow cytometry (Annexin V) in lymphoma cell lines expressing p100 siRNA, treated with bortezomib
Protocol: (A) Two lymphoma cell lines, Daudi and Raji, expressing a p100 or a p105 siRNA were treated with titrating doses of bortezomib for 24 hours. […] Expression of p100 siRNA in two lymphoma cell lines, Daudi and Raji, reduce the protein levels of cleaved caspase 3 and 9. Western blot of Daudi and Raji cell lines expression p100 siRNA or luciferase were performed after 24 hours of treatment with titrating does of bortezomib.
Sequences of NF-κB2-shRNA are known. The sense shRNA oligonucleotide probes were as follows: p100, […] (SEQ ID NO: 12). Luciferase (Luc) shRNA plasmid was provided by S. Stewart. Short interfering hairpin RNA were expressed under U6 human promoter and were generated using PLKopuro.1. NF-κB2, NF-κB2-ankirin repeats region, NF-κB2-death domain and LcZ (control) were expressed under a CMV promoter and generated using a pLenti6/V5-DEST (Invitrogen Life Technologies). Recombinant lentiviruses were generated in 293T cells, for infection of all MM cell lines. Stable cell lines expressing shRNAs or the protein of interest were obtained after selecting cells with 2 μg/mL puromycin or 10 μg/mL, respectively. Cells were used for experiments two weeks after infection.

effect on NF-kB luciferase reporter activity [4]: NF-kB inhibitory effects
SMILES: CC(C)C[C@H](NC(=O)[C@H](Cc1ccccc1)NC(=O)c1cnccn1)B(O)O [bortezomib]
sensitivity to bortezomib on expression of p100 (NF-κB2), NF-κB2-ankyrin domains and NF-κB2-death domain [1]: restores sensitivity | bortezomib sensitivity of cell line [2]: resistant | bortezomib sensitivity of cell line [3]: resistant | bortezomib sensitivity of lymphoma cells [5]: sensitive | bortezomib-induced apoptosis on p100 siRNA expression ([5]; titrating doses, 24 hours, Annexin V): reduces
